This note sets out measurements from patent publication EP4810483A1, “6- AND 5-HETEROARYL DERIVATIVES AND USE THEREOF” (CMS Research & Development Pte. Ltd., priority 2023, dated 2025).

Molecules are shown by their SMILES. Like-named read-outs stand apart in the source and are kept apart here.

For one data set, the target named is T1, hERG potassium channel (Homo sapiens, UniProt Q12809).
T1 construct: expressed in transfected cells; host or cells: CHO-hERG
In words: Automated patch clamp (Qpatch) assay for hERG potassium channel activity. It counts as cell-based. As to the method:
Assay Example 5: Automated patch clamp (Qpatch) assay for hERG potassium channel activity
CHO-hERG cells were cultured in 175 cm^2 culture flasks. When the cell density reached 60-80%, the culture medium was removed, the cells were washed once with 7 mL of PBS, and then 3 mL of cell dissociation reagent was added for digestion. After complete digestion, 7 mL of culture medium was added to neutralize, and the cells were centrifuged. The supernatant was aspirated, and the cells were resuspended in 5 mL of culture medium to achieve a cell density of 2~5 × 10^6/mL.
The compound stock solution was diluted with DMSO. 10 µL of compound stock solution was added to 20 µL of DMSO solution, followed by 3-fold serial dilution to obtain 6 DMSO concentrations. 4 µL of the compound solution at each of the six DMSO concentrations was added to 396 µL of extracellular solution to achieve a 100-fold dilution to obtain six intermediate concentrations. Then, 80 µL of the compound solution at each of the six intermediate concentrations was added to 320 µL of extracellular solution to achieve a 5-fold dilution to the desired final test concentrations. […]
The electrophysiological process was recorded. […] This voltage stimulation was applied every 15 seconds, and recorded for 2 minutes. The extracellular solution was then given, and recorded for 5 minutes. […]
The assay data were analyzed using GraphPad Prism 5.0 software. […]
Background: The patch-clamp technique gives a direct electrical read-out from membranes.

Another data set concerns the target CYP3A4 (Homo sapiens, UniProt P08684). In words: Drug-drug interaction evaluation: CYP inhibition in human liver microsomes (cocktail method). Here is the method: (§1) The cocktail method using specific probe substrates for CYP1A2, CYP2C9, CYP2C19, CYP2D6 and CYP3A was used to evaluate the inhibitory effect of the compounds on the activity of human liver microsomal cytochrome P450 isoenzymes (CYP1A2, CYP2C9, CYP2C19, CYP2D6 and CYP3A).
(§2) Human liver microsomes, probe substrates, positive control inhibitors, and reduced nicotinamide adenine dinucleotide phosphate (NADPH).
(§3) To the corresponding wells of a reaction plate, 20 µL of substrate solution was added; to blank wells, 20 µL of potassium phosphate buffer was added.
(§4) To the corresponding wells, 2 µL of test compound and positive control working solution were added; to inhibitor-free and blank wells, 2 µL of solvent was added.
(§5) Human liver microsome working solution was prepared, and 158 µL of human liver microsome working solution was added to each well of the reaction plate.
(§6) The plate was pre-incubated at 37.0°C for 10 minutes.
(§7) To start the reaction, 20 µL of NADPH cofactor working solution was added to the reaction plate.
(§8) After incubation in a 37.0°C water bath with mixing for 10 minutes, 400 µL of stop solution was added to terminate the reaction.
(§9) The sample plate was centrifuged at 4000 rpm for 20 minutes.
(§10) 200 µL of supernatant was taken and mixed with 100 µL of pure water as diluent, and the plate was shaken to mix well.
(§11) Analysis was performed by liquid chromatography-tandem mass spectrometry (LC-MS/MS).
(§12) Using the percentage of remaining activity as the ordinate and the test compound concentration as the abscissa, a non-linear regression analysis was performed with a three-parameter or four-parameter model using XL fit software to calculate the IC50 value.
(§13) y = (max)/(1 + (((x)/(IC50)))^−hillslope) [formula]
(§14) y = min + (max−min)/(1 + (((x)/(IC50)))^−hillslope) [formula]
(§15) max = maximum enzyme activity; min = minimum enzyme activity; x = concentration of test compound or positive control inhibitor; y = enzyme activity at the corresponding concentration; hillslope = slope; IC50 = half-maximal inhibitory concentration. The four-parameter equation was used when the minimum enzyme activity was within ±10%; otherwise the three-parameter equation was used.
For orientation: Microsomes from liver hold many membrane-bound enzymes, among them those of drug oxidation.

The next data set has as its target CYP2C19 (Homo sapiens, UniProt P33261). Described as above. As to the method: as §1, §2, §3, §4, §5, §6, §7, §8, §9, §10, §11, §12, §13, §14, §15
Another data set deals with CYP2D6 (Homo sapiens, UniProt P10635). The data set is described as above. As to the method: as §1, §2, §3, §4, §5, §6, §7, §8, §9, §10, §11, §12, §13, §14, §15
The next data set addresses T2, CYP1A2 (Homo sapiens, UniProt P05177).
T2 sequence (P05177 1-516): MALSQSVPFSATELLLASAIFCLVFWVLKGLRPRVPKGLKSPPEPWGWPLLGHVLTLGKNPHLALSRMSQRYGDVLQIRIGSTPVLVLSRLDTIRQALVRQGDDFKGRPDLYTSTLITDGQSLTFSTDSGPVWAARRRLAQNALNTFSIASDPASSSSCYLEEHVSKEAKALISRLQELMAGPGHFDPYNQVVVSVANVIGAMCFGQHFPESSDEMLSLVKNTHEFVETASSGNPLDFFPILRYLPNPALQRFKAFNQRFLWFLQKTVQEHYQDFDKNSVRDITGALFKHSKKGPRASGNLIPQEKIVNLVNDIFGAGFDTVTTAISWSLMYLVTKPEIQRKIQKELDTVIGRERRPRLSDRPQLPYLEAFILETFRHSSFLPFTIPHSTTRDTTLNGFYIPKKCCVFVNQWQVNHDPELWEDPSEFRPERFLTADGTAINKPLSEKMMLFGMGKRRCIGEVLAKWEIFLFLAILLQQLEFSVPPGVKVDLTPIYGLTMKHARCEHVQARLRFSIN
The data set is described as above. Here is the method:
as §1, §2, §3, §4, §5, §6, §7, §8, §9, §10, §11, §12, §13, §14, §15

For another data set, the target named is CYP2C9 (Homo sapiens, UniProt P11712). The data set is described as above. Here is the method:
as §1, §2, §3, §4, §5, §6, §7, §8, §9, §10, §11, §12, §13, §14, §15

T1 sequence (Q12809 whole entry): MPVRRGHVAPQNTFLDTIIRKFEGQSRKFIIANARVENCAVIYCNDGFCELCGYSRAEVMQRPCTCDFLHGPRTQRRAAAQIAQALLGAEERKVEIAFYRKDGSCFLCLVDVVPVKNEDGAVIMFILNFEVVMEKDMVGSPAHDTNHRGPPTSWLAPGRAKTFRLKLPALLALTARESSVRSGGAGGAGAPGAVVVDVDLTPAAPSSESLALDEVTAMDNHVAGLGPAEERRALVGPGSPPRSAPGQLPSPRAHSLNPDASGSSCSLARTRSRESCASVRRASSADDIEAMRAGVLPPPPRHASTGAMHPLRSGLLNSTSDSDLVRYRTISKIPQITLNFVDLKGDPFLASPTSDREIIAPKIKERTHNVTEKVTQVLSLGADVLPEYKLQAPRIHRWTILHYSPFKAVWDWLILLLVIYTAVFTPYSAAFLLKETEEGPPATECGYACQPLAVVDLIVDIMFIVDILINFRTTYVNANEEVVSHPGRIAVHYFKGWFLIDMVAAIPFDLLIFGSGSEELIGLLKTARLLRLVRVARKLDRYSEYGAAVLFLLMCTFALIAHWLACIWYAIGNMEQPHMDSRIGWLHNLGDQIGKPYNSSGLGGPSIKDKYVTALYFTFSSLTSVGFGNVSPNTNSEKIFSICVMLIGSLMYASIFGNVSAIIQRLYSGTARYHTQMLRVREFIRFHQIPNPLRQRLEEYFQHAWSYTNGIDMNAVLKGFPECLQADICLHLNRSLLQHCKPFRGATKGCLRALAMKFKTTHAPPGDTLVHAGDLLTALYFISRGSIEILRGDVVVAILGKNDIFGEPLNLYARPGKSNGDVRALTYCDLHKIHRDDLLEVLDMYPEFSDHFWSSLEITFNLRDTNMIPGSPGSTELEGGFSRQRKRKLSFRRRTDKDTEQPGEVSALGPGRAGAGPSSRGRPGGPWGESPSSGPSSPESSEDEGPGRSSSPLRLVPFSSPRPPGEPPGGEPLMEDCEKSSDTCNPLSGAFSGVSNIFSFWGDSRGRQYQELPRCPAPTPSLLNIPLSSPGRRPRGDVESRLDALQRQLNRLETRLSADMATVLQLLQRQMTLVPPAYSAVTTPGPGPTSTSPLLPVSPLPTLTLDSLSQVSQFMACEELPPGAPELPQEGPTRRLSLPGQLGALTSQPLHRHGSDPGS
CYP3A4, sequence (P08684 2-503): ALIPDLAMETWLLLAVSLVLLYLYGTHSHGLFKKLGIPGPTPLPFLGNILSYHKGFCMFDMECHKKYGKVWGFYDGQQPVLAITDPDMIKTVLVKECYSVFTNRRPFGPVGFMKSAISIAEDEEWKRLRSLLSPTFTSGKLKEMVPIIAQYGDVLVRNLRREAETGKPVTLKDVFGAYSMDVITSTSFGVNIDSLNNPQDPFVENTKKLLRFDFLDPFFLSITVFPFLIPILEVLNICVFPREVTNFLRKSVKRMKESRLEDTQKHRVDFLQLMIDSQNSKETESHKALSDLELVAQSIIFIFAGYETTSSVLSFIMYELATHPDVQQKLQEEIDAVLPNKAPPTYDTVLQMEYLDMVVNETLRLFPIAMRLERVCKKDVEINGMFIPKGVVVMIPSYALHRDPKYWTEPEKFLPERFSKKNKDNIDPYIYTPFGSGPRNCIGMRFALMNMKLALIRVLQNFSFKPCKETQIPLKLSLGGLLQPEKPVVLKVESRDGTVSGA
CYP2C19, sequence (P33261 whole entry): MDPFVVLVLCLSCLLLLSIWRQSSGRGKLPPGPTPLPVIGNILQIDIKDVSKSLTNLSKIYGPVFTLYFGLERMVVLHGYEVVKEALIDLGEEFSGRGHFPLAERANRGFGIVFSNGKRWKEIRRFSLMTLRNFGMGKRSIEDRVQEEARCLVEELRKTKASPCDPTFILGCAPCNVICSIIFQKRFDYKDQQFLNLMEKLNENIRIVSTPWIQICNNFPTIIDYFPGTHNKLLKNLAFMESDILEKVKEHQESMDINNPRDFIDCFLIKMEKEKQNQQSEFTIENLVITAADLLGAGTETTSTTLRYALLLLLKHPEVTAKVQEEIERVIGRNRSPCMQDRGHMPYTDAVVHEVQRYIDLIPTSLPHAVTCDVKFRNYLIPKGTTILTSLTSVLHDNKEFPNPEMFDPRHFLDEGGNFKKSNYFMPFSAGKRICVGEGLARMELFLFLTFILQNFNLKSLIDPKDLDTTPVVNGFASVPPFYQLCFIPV
CYP2D6, sequence (P10635 whole entry): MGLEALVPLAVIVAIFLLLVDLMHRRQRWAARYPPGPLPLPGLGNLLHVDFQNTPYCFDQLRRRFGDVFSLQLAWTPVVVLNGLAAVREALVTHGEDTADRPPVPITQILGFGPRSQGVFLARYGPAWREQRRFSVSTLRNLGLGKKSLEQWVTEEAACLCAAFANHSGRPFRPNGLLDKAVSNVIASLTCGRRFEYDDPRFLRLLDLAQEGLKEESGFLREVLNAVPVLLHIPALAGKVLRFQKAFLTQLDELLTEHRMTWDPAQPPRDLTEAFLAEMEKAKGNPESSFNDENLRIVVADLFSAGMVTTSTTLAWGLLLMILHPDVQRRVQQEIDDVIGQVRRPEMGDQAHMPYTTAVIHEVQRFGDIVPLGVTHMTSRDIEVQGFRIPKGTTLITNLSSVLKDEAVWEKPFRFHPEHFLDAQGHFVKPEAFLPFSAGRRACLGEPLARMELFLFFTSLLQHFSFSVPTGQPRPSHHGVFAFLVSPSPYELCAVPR
CYP2C9, sequence (P11712 whole entry): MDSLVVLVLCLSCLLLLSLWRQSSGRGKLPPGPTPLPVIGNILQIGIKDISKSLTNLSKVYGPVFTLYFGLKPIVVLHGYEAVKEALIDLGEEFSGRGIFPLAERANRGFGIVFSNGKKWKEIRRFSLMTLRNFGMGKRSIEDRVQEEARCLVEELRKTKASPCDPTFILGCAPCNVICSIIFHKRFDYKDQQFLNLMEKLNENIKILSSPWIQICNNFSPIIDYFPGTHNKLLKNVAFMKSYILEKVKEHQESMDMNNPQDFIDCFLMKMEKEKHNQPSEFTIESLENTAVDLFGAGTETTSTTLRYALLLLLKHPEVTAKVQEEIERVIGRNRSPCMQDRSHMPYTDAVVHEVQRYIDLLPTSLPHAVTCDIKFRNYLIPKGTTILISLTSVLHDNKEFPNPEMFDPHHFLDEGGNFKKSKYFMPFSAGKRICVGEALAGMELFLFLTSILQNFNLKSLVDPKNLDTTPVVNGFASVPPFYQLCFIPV

`Cc1c(NC(=O)CC(C)(C)C)n(C)c2cc(Nc3ccc(F)cc3)ccc12` [Compound 1]: the half-inhibitory concentration (IC50) (in general, the concentration that inhibits the measured activity by half) at hERG potassium channel (CHO-hERG cells, Qpatch, highest test concentration 40.00 µM, read-out: IC50) was over 40 µM.
For the compound `Cc1c(NC(=O)CC(C)(C)C)n(C)c2cc(Nc3ccc(C(F)(F)F)cc3)ccc12` [Compound 5], the 50% inhibitory concentration (IC50) against CYP3A4 was over 50 µM; against hERG potassium channel it was over 40 µM.
`Cc1nc(Nc2ccc3c(C)c(NC(=O)CC(C)(C)C)n(C)c3c2)ccc1F` [Compound 41]: the IC50 is over 50 µM against CYP2C19; over 50 µM against CYP2D6; 11 µM against CYP1A2; 11 µM on CYP2C9; over 50 µM on CYP3A4.
